Results published in ChEMBL document CHEMBL1201862, “PubChem BioAssay data set” (2004).
The source made the active and inactive calls.

What was measured:
Cytochrome P450 3A4 = Cytochrome P450 3A4 (Homo sapiens, UniProt P08684); conditions: Potency;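 further: confirmatory qHTS run detecting inhibitors and substrates of CYP3A4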
[1] = biological target: Glyceraldehyde-3-phosphate dehydrogenase (Homo sapiens, UniProt P04406)
[2] = biological target: T1, Alkaline phosphatase, tissue-nonspecific isozyme (Homo sapiens, UniProt P05186); experiment: potency against alkaline phosphatase TNAP – biochemical, luminescent, dose response, SAR follow-up (AID 1056)
T1 sequence (P05186 whole entry): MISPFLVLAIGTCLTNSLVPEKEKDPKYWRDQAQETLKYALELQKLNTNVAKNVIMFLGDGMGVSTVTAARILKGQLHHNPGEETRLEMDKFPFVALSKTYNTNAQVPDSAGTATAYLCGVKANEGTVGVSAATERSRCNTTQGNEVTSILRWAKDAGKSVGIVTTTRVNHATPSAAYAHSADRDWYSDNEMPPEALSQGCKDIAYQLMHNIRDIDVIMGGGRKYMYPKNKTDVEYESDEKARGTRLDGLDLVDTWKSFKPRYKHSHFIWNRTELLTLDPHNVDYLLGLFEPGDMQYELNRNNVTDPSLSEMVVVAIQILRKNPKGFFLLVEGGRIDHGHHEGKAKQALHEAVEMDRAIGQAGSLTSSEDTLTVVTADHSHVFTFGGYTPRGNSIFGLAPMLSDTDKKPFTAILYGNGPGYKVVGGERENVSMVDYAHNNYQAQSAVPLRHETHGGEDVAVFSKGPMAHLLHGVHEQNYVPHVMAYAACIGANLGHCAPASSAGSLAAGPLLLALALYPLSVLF

[3] = biological target: T2, Heat shock factor protein 1 (Mus musculus, UniProt P38532); experiment: decrease of HSF1-responsive luciferase luminescence – cell-based, NIH3T3, dose retest, confirmation (AID 2382); type: functional;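 further: NIH3T3 fibroblasts with HSF1-driven luciferase reporter stressed by proteasome inhibitor MG132; luminescence from HSF1-driven luciferase expression after 8 hours of MG132 stress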
T2 sequence (P38532 whole entry): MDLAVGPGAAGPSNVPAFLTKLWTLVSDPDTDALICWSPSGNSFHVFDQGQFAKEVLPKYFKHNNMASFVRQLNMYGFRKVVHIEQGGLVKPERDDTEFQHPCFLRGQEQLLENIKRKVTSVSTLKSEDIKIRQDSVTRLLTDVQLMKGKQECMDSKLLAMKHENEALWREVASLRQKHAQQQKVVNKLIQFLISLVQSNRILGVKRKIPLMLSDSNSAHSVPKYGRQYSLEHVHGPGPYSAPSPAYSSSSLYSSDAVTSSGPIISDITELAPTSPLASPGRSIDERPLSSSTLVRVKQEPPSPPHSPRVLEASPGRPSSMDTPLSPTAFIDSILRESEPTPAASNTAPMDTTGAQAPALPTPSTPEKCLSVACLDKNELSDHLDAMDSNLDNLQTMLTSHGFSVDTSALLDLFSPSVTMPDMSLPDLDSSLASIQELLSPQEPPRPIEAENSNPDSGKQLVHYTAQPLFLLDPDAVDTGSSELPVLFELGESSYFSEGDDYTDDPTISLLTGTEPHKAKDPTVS

[4] = THP-1 cell cytotoxicity, dose response, cytotoxicity control for non-replicating M. tuberculosis project (AID 489025); type: functional
[5] = Vero E6 cell cytotoxicity, dose response, cytotoxicity control for non-replicating M. tuberculosis project, secondary assay (AID 492998); type: functional, VeroE6; conditions: Vero C1008
cells = type: functional
[6] = biological target: Glucose-6-phosphate 1-dehydrogenase (Homo sapiens, UniProt P11413); experiment: inhibition of Homo sapiens G6PD, dose series – biochemical, fluorescence, selectivity assay for P. falciparum G6PD inhibitor project, dose response (AID 504792); type: functional
Chain of Glucose-6-phosphate 1-dehydrogenase (P11413 whole entry): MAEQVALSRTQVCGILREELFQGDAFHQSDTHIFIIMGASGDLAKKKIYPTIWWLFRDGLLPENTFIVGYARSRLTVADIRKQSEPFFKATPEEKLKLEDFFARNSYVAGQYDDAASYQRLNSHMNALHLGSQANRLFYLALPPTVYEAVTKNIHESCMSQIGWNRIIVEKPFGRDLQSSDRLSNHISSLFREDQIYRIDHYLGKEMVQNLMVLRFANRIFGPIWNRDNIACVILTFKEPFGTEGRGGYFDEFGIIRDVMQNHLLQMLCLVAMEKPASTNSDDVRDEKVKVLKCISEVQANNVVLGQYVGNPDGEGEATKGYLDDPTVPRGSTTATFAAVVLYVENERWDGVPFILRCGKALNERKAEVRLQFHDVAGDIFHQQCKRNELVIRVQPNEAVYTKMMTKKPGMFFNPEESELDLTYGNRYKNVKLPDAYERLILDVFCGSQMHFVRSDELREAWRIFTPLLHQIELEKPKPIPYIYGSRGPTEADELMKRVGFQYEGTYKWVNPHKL

[7] = biological target: DNA dC->dU-editing enzyme APOBEC-3G (Homo sapiens, UniProt Q9HC16); experiment: Dose Response confirmation of small molecule APOBEC3G DNA Deaminase Inhibitors via a fluorescence-based single-stranded DNA deaminase assay. [Related pubchem assays (depositor defined):AID493012, AID493028]; type: functional
Chain of DNA dC->dU-editing enzyme APOBEC-3G (Q9HC16 whole entry): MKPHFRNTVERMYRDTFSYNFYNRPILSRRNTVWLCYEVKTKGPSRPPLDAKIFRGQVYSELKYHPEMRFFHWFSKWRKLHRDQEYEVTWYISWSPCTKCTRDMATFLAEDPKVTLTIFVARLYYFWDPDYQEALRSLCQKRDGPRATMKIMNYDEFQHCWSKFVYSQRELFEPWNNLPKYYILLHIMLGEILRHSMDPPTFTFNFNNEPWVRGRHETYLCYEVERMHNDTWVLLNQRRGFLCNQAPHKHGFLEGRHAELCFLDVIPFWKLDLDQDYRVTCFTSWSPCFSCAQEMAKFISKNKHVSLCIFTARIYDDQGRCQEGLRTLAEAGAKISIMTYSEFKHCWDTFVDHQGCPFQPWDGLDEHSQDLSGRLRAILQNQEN

[8] = growth inhibition of yeast DHODH-expressing 3D7 parasites – SYBR Green, dry powder samples, dose response (AID 1159570); type: functional, cell-based;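 further: parasite growth measured after 72 hours of compound exposure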
[9] = toxicity to human HepG2 hepatoma cells – cell-based, plate reader, dry powder samples, cytotoxicity control, dose response (AID 1159569); type: functional;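 further: inhibitor potency with signal falling toward the positive control level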
[10] = P. falciparum Dd2 growth inhibitors, dose response, SYBR Green, cherry-picked samples (AID 1159567); type: functional, cell-based
[11] = Dd2 malaria parasite growth inhibition potency – SYBR Green, dry powder samples, dose response (AID 1159566); type: functional, cell-based;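 further: potency for growth inhibition with lower SYBR green DNA signal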
[12] = toxicity to human hepatoma HepG2 cells – cell-based, cherry-picked samples, cytotoxicity control, dose response (AID 1159577); type: functional
[13] = growth inhibition of PfATP4-mutant resistant parasites – NITD609-resistant line, SYBR Green, dry powder, dose response (AID 1159571); type: functional, cell-based;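 further: parasites synchronized at ring stage by sorbitol before testing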

Chain of Glyceraldehyde-3-phosphate dehydrogenase (P04406 whole entry): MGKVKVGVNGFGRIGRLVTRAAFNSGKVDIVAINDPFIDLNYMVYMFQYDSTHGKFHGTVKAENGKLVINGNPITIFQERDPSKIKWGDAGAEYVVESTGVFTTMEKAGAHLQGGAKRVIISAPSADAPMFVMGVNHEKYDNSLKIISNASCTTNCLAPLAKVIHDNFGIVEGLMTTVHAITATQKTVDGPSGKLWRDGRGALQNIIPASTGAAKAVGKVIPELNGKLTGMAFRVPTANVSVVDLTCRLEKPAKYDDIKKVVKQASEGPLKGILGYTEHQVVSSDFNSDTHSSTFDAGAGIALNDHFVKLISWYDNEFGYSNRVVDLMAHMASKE
Chain of Cytochrome P450 3A4 (P08684 whole entry): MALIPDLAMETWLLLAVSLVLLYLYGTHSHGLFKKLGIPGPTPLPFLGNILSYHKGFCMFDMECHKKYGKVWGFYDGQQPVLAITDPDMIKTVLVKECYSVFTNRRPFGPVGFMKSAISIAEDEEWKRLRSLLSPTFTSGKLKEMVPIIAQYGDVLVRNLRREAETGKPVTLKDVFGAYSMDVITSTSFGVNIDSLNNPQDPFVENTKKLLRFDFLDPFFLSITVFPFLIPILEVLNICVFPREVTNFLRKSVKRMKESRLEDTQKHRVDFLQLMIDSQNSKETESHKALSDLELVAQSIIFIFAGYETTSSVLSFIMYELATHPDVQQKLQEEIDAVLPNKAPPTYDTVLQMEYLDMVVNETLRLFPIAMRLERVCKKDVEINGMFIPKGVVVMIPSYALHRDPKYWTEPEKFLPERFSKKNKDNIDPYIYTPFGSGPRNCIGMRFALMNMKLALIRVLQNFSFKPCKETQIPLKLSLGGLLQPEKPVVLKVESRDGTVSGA

Question: With `CC1C(=O)OC2C1CC[C@@]1(C)C=CC(=O)[C@@]3(C)O[C@@]213` (some centres not stated) as the compound, how does the AC50 (Cytochrome P450 3A4) read?
Answer: Its AC50 is 39.8 µM (inconclusive).

Question: With `c1cnc(-c2cccnc2)nc1` as the compound, how does the IC50 [1] read?
Answer: The IC50 was > 100 µM (not active).

Question: What about the IC50 [2] of the same compound?
Answer: The IC50 was > 100 µM (inactive).

Question: Which IC50 [1] does the source give for `O=C(O)c1cc(-c2ccc3c(c2)OCCO3)n[nH]1` here?
Answer: The IC50 was > 100 µM (not active).

Question: And the IC50 [2]?
Answer: The IC50 was 49.8 µM (active).

Question: What does the source list for `COc1ccccc1NC(=O)c1ccc([N+](=O)[O-])o1`?
Answer: EC50 [3]: > 195 µM (not active); CC50 [4]: 17.5 µM (active); CC50 [5]: 5.96 µM (active); IC50 (cells): 9.55 µM (active)

Question: With `COC(=O)[C@H](CCSC)NC(=O)c1cc2c3ccccc3nc-2c[nH]1` as the compound, how does the IC50 [6] read?
Answer: Its IC50 is > 80 µM (inactive).

Question: What about the IC50 [7] of the same compound?
Answer: Its IC50 is 59.6 µM (active).

Question: What does the source list for `CCn1cnc(-c2cccnc2)c1`?
Answer: IC50 [1]: > 100 µM (not active); IC50 [2]: > 100 µM (inactive)

Question: What does the source list for `O=C(N/N=C/c1cc([N+](=O)[O-])ccc1O)C12CC3CC(CC(C3)C1)C2`?
Answer: CC50 [4]: 21 µM (active); CC50 [5]: > 20 µM (active); IC50 (cells): 16.3 µM (active)

Question: For `COc1ccc2c3c([nH]c2c1)[C@H](CO)N(Cc1ccc(Cl)cc1)CC31CCN(Cc2nccs2)CC1`, which AC50 [8] is on record?
Answer: Its AC50 is 1.22 µM (active).

Question: And the AC50 [9]?
Answer: The AC50 was 25.8 µM (active).

Question: What about the AC50 [10] of the same compound?
Answer: Its AC50 is 1.22 µM (active).

Question: What about the AC50 [11] of the same compound?
Answer: The AC50 was 0.781 µM (active).

Question: And the AC50 [12]?
Answer: The AC50 was > 39 µM (inactive).

Question: And the AC50 [13]?
Answer: Its AC50 is 1.11 µM (active).
